Values of other authors, collected in US20150057617A1, “ANTI-MICROBIAL DRESSING, AN ANTI-MICROBIAL COMPOSITION AND USE THEREOF” (EMODIAL S.r.l., priority 2012, published 2015).

System: fibroblasts

[H]/N=C(\N/C(=N/[H])NCCCCCCNC(=N)NC(=N)Nc1ccc(Cl)cc1)Nc1ccc(Cl)cc1 [chlorhexidine]
cytotoxicity for fibroblasts: cytotoxic for fibroblasts
